Experimental data taken from patent US5639751A, “N-acyl-2,3-benzodiazepine derivatives for treating acute and chronic neurodegenerative disorders” (priority 1990, dated 1997).
Structures can show the parent of a compound that is named as a salt. Where two headings read alike, the source gives them in different places.

How the values were obtained:
[1] = test system: male CFLP mice; assay: Anticonvulsive effect in mice, nicotine; type: in vivo; conditions: Mus musculus, po
Description: (§1) The anticonvulsive effect of the compounds of the formula (I) was measured by using the electroshock test [J. Pharmacol. Exp. Ther. 106, 319 (1952)], furthermore by using various chemical agents such as pentetrazole [J. Pharmacol. Exp. Ther. 108, 168 (1953)], strychnine [J. Pharmacol. Exp. Ther. 129, 75 (1960)], bemegride, nicotine and 4-aminopyridine. The test compounds were orally administered in 3 doses, to 10 male CFLP mice per dose.

[2] = Acute toxicity in mice; conditions: mouse, in vivo
Description: The cause of mortality was respiratory insufficiency developing within 1 to 2 hours after i.p. administration and within 10 to 20 hours after oral application.

[3] = test system: male CFLP mice; assay: Anticonvulsive effect in mice, 4-aminopyridine; type: in vivo; conditions: Mus musculus, po, read-out: ED50 p.o., 4-AP (4-aminopyridine)
Description: as §1

[4] = test system: male CFLP mice; assay: Anticonvulsive effect in mice, bemegride; type: in vivo; conditions: Mus musculus, po, read-out: ED50 p.o., Bemegride
Description: as §1

[5] = test system: CFLP mice; assay: Inclined screen test in mice; type: in vivo; conditions: Mus musculus, ip, read-out: ED50 i.p., inclined screen test
Description: In Randall's inclined screen test [J. Pharmacol. Exp. Ther. 129, 163 (1960)] the compounds were applied in 3 i.p. doses to 10 CFLP mice per dose.

[6] = test system: male CFLP mice; assay: Anticonvulsive effect in mice, electroshock test; type: in vivo; conditions: Mus musculus, po, read-out: ED50 p.o., ES (electroshock)
Description: as §1

[7] = test system: male CFLP mice; assay: Anticonvulsive effect in mice, strychnine; type: in vivo; conditions: Mus musculus, po, read-out: ED50 p.o., Strychnine
Description: as §1

[8] = test system: male CFLP mice; assay: Anticonvulsive effect in mice, pentetrazole; type: in vivo; conditions: Mus musculus, po, read-out: ED50 p.o., Pentetrazole
Description: as §1

[9] = test system: mice; assay: Rotarod test in mice; type: in vivo; conditions: Mus musculus, ip, read-out: ED50 i.p., rotarod test
Description: The rotarod test was used to measure muscular tone and motor co-ordination [J. Am. Pharm. Assoc. 46, 208 (1957)].

[10] = test system: mice; assay: Protection against methamphetamine-induced dopaminergic neurotoxicity, in mice; type: in vivo; conditions: METH 2×20 mg/kg i.p., Example 128 3×5 mg/kg i.p., MK-801 3×2.5 mg/kg i.p.
Description: High doses of methamphetamine (2×20 mg/kg i.p.) decrease the striatal level of dopamine, which can be prevented by glutamate antagonists, e.g. the NMDA-antagonist MK-801 [Science 243, 398 (1989)].

[11] = test system: cats; assay: Effects on spinal root reflex potentials in spinalized and immobilized cats; type: in vivo; conditions: for minimal effective dose: Felis catus
Description: The effect of compound of Example 15(16) on the spinal root potentials in cats was tested in spinalized and immobilized animals [Neuropharmacology 21, 161 (1989)].

| Structure (SMILES) | ED50 [1] | LD50 ([2]; ip, read-out: LD50 i.p.) | LD50 ([2]; po, read-out: LD50 p.o.) | ED50 ([3]; mice, p.o.) | ED50 ([4]; mice, p.o.) | ED50 ([5]; mice, i.p.) | ED50 ([6]; mice, p.o.) | ED50 [7] | ED50 ([8]; mice, p.o.) | ED50 ([9]; mice, i.p.) | further results |
| --- | --- | --- | --- | --- | --- | --- | --- | --- | --- | --- | --- |
| CC(=O)N1N=C(c2ccc(NC(=O)C(F)(F)F)cc2)c2cc3c(cc2CC1C)OCO3 (stereo not drawn) [Example 62] | 31 mg/kg | 136 mg/kg | 160 mg/kg | 29 mg/kg | 36 mg/kg | 25.5 mg/kg | 12.5 mg/kg | > 100 mg/kg | 56 mg/kg | 7.8 mg/kg |  |
| CCC(=O)N1N=C(c2ccc(NC(C)=O)cc2)c2cc3c(cc2CC1C)OCO3 (stereo not drawn) [Example 49] | 45 mg/kg |  |  | 28 mg/kg | 43 mg/kg | 36 mg/kg | 25 mg/kg | > 100 mg/kg | 53 mg/kg | 9.4 mg/kg |  |
| O=C1NC(=O)C(c2ccccc2)(c2ccccc2)N1 [Phenytoin, 5,5-diphenyl-2,4-imidazolidinedione, reference compound] | 12 mg/kg |  |  |  | > 200 mg/kg |  | 10 mg/kg | 160 mg/kg | > 400 mg/kg |  |  |
| CNC(=O)N1N=C(c2ccc(NC(=O)CN)cc2)c2cc3c(cc2CC1C)OCO3 (stereo not drawn) [Example 115, 1-(4-Glycylaminophenyl)-3-methylcarbamoyl-4-methyl-7,8-methylenedioxy-3,4-dihydro-5H-2,3-benzodiazepine] |  | 90.7 mg/kg | 200 to 250 mg/kg |  |  | 16.1 mg/kg | 17.1 mg/kg |  | 23.9 mg/kg | 7.3 mg/kg |  |
| CCN(CC)CC(=O)Nc1ccc(C2=NN(C(C)=O)C(C)Cc3cc4c(cc32)OCO4)cc1 (stereo not drawn) [Example 108, 1-[4-(N,N-diethylglycylamino)phenyl]-3-acetyl-4-methyl-7,8-methylenedioxy-3,4-dihydro-5H-2,3-benzodiazepine] |  |  |  |  |  |  | 27 mg/kg |  | > 100 mg/kg |  |  |
| CC(=O)N1N=C(c2ccc(NC(=O)CN(C)C)cc2)c2cc3c(cc2CC1C)OCO3 (stereo not drawn) [Example 107, 1-[4-(N,N-dimethylglycylamino)phenyl]-3-acetyl-4-methyl-7,8-methylenedioxy-3,4-dihydro-5H-2,3-benzodiazepine] | 34.2 mg/kg |  |  | 36.8 mg/kg | 25.4 mg/kg |  | 23.5 mg/kg | 22.8 mg/kg | 120 mg/kg |  |  |
| C[C@]12N[C@H](Cc3ccccc31)c1ccccc12 [MK-801, (+)-10,11-dihydro-5-methyl-5H-dibenzo[a,d]cyclohepten-5,10-imine (Z)-2-butene-dioate, reference compound] |  |  |  |  |  |  |  |  |  |  | (DOPAC + HVA)/DA, % ([10]; % of saline group): 132%; DA, % ([10]; % of saline group): 66%; (DOPAC + HVA)/DA, mean ± SE ([10]; striatal dopamine turnover): 0.33 ± 0.06; DA, μg/g tissue, mean ± SE ([10]; striatal dopamine): 10.01 ± 1.10 μg/g tissue |
| CC(=O)N1N=C(c2ccc(NC(=O)CN)cc2)c2cc3c(cc2CC1C)OCO3 (stereo not drawn) [Example 73] | 53 mg/kg | 143 mg/kg | 168 mg/kg | 28 mg/kg | 49 mg/kg | 27 mg/kg | 16 mg/kg | > 100 mg/kg | 62 mg/kg | 6.3 mg/kg |  |
| CC1=NN=C(c2ccc(NC(=O)C(C)N)cc2)c2cc3c(cc2C1)OCO3 (racemic) [Example 69] |  |  |  |  |  |  | 57 mg/kg |  | > 100 mg/kg |  |  |
| CC(=O)N(C(C)=O)c1ccc(C2=NN(C(C)=O)C(C)Cc3cc4c(cc32)OCO4)cc1 (stereo not drawn) [Example 39, 1-(4-Diacetylaminophenyl)-3-acetyl-4-methyl-7,8-methylenedioxy-3,4-dihydro-5H-2,3-benzodiazepine] |  | 271 mg/kg | > 600 mg/kg | 29 mg/kg | > 200 mg/kg |  | 53 mg/kg |  | 170 mg/kg |  |  |
| CN1C(=O)CN=C(c2ccccc2)c2cc(Cl)ccc21 [Diazepam, 7-chloro-1,3-dihydro-1-methyl-5-phenyl-2H-1,4-benzodiazepin-2-one, reference compound] | 1.85 mg/kg |  |  |  |  |  |  | 15 mg/kg |  |  | Effect on both dorsal root responses [11]: markedly potentiated; minimal effective dose ([11]; read-out: Minimal effective dose, inhibition of polysynaptic reflexes): < 0.1 mg/kg; minimal effective dose ([11]; read-out: Minimal effective doses, potentiation of dorsal root responses): ~0.1 mg/kg; Maximal inhibition of polysynaptic reflexes ([11]; partial inhibition): ≤ 50%; Effect on monosynaptic reflexes ([11]; up to 3.2 mg/kg): did not affect; ED50 [4]: 0.58 mg/kg; ED50 [6]: 18 mg/kg; ED50 [8]: 0.86 mg/kg |
| CC(=O)N1N=C(c2ccc(NC=O)cc2)c2cc3c(cc2CC1C)OCO3 (stereo not drawn) [Example 46] | 80 mg/kg | 173 mg/kg | 162 mg/kg | 17 mg/kg | 56 mg/kg |  | 20 mg/kg | > 100 mg/kg | 57 mg/kg |  |  |
| CCC(=O)Nc1ccc(C2=NN(C=O)C(C)Cc3cc4c(cc32)OCO4)cc1 (stereo not drawn) [Example 60] |  |  |  |  |  |  | 24 mg/kg |  | 62 mg/kg |  |  |
| CC(=O)N1N=C(c2ccc(NC(=O)CN3CCCC3)cc2)c2cc3c(cc2CC1C)OCO3 (stereo not drawn) [Example 109, 1-[4-(1-Pyrrolidinoacetylamino)phenyl]-3-acetyl-4-methyl-7,8-methylenedioxy-3,4-dihydro-5H-2,3-benzodiazepine hydrogen fumarate] |  |  |  |  |  |  | 21 mg/kg |  | > 100 mg/kg |  |  |
| CC(=O)Nc1ccc(C2=NN(C(C)=O)C(C)Cc3cc4c(cc32)OCO4)cc1 (stereo not drawn) [Example 42, 1-(4-Acetylaminophenyl)-3-acetyl-4-methyl-7,8-methylenedioxy-3,4-dihydro-5H-2,3-benzodiazepine] | 155 mg/kg | 120 mg/kg | 185 mg/kg | 34 mg/kg | 24 mg/kg | 42 mg/kg | 24 mg/kg | 28 mg/kg | 33 mg/kg | 8.1 mg/kg |  |
| NCC(CC(=O)O)c1ccc(Cl)cc1 (stereo not drawn) [Baclofen, β-(aminomethyl)-4-chlorobenzeneprioionic acid, reference compound] |  |  |  |  |  |  |  |  |  |  | ED50 [5]: 26 mg/kg; ED50 [9]: 12.5 mg/kg |
| CCC(=O)Nc1ccc(C2=NN(C(C)=O)C(C)Cc3cc4c(cc32)OCO4)cc1 (stereo not drawn) [Example 48] | 25 mg/kg | 103 mg/kg | 149 mg/kg | 20 mg/kg | 33 mg/kg | 20.5 mg/kg | 10.5 mg/kg | > 100 mg/kg | 30.5 mg/kg | 7.2 mg/kg |  |
| CCC(=O)N1N=C(c2ccc(N)cc2)c2cc3c(cc2CC1C)OCO3 (stereo not drawn) [Example 18] | 16 mg/kg |  |  |  |  |  |  | > 100 mg/kg |  |  | ED50 [3]: 16 mg/kg; ED50 [4]: 20 mg/kg; ED50 [5]: 31 mg/kg; ED50 [6]: 17.5 mg/kg; ED50 [8]: 29 mg/kg; ED50 [9]: 7.5 mg/kg |
| COCC(=O)Nc1ccc(C2=NN(C(C)=O)C(C)Cc3cc4c(cc32)OCO4)cc1 (stereo not drawn) [Example 52] | 13.5 mg/kg | 117 mg/kg | 188 mg/kg | 24 mg/kg | 29 mg/kg | 21 mg/kg | 17.5 mg/kg | > 100 mg/kg | 36 mg/kg | 4.8 mg/kg |  |
| CCC(=O)Nc1ccc(C2=NN(C(=O)CC)C(C)Cc3cc4c(cc32)OCO4)cc1 (stereo not drawn) [Example 45, 1-(4-Propionylaminophenyl)-3-propionyl-4-methyl-7,8-methylenedioxy-3,4-dihydro-5H-2,3-benzodiazepine] | 23 mg/kg | 98.4 mg/kg | 206 mg/kg | 34 mg/kg | 51 mg/kg | 35 mg/kg | 27 mg/kg | > 100 mg/kg | 44 mg/kg | 10 mg/kg |  |
| CC1=NN=C(c2ccc(NC(=O)CN)cc2)c2cc3c(cc2C1)OCO3 [Example 66, 1-(4-Glycylaminophenyl)-4-methyl-7,8-methylenedioxy-5H-2,3-benzodiazepine] | 105 mg/kg | 205 mg/kg | 281 mg/kg | 84 mg/kg | > 100 mg/kg | 52 mg/kg | 42 mg/kg | 105 mg/kg | 135 mg/kg | 18.5 mg/kg |  |
